Tests used:
[1] = Acute toxicity by oral route in mice (LD50); format: in vivo; details: mouse, in vivo, gummy suspension
Experimental: (§1) The study of the acute toxicity of the stabilizers listed below was carried out by determining the dose of substance which provoked the death of 50% of the treated animals (LD50). A gummy suspension of the substance under study was administered by oral route to groups of at least ten mice and the following results were observed: […]

mice = assay: Acute toxicity by oral route in mice (LD50); format: in vivo; details: LD50 study
Experimental: as §1

[2] = Static thermostability of stabilized resin, GARDNER Scale Comparator, Compound B; details: 210° C
Experimental: (§2) The stabilizing power of the substances of the invention was studied from two points of view:
(§3) These studies were performed with six different formulae of vinyl resins (hereinafter referred to as Compounds).
(§4) The different compounds were mixed and calendered in a mixer of which the cylinders were heated to 160° C. The rigid sheets so obtained were then heated in an oven to a temperature between 180° C and 215° C, until incipient carbonization.
(§5) A stove with rotating drums, ventilated and equipped with a thermostat was used for this operation. In the trials described hereunder, the behaviour of a sheet containing the stabilizer to be tested was compared to that of a sheet of the same formula but containing 2-phenyl-indole as stabilizer.
1. The colouration of the sheets, of which samples were removed from the stove at fixed intervals was compared to a standard scale of colouration, known as the GARDNER Scale, and expressed in terms of the reference figures of the GARDNER Scale.
Comparisons were made with a GARDNER Scale Comparator which contains 18 filters of coloured glass and which offers the possibility of observing by transparency and in a limited field of view both the sheet and the reference filters.
Compound B was used and the sheets obtained presented the following characteristics: […]

[3] = Static thermostability of stabilized resin, simplified method (GARDNER sub-scale), Compound D; details: 185° C
Experimental: as §2, §3, §4, §5
(§6) 2. It is also possible to use a simplified method which is more rapid and with which valid results are also obtained: a reference scale is drawn up with sheets of thermally treated polyvinyl chloride, of which the colourations have been definitely determined in GARDNER degrees as above. A GARDNER sub-scale is thus obtained in polyvinyl chloride sheets which can be directly compared to the sheets to be tested without using the comparator.

[4] = Static thermostability of stabilized resin, simplified method (GARDNER sub-scale), Compound E; details: 185° C
Experimental: as §2, §3, §4, §5, §6

[5] = Static thermostability of stabilized resin, simplified method (GARDNER sub-scale), Compound C; details: 210° C
Experimental: as §2, §3, §4, §5, §6

[6] = Dynamic thermostability of stabilized resin on a plastograph, Compound C; details: Compounds C and F, 190° C
Experimental: The dynamic thermostability of resins containing respectively 2-(4'-dodecyloxy-phenyl)-indole and 2-phenyl-indole as stabilizers was compared by using the Compounds numbered hereunder:
No. 609: Compound C with 2-phenyl-indole as Stabilizer
No. 675: Compound C with Stabilizer 8
The tests were performed on a plastograph, working at a temperature of 190° C, turning at a speed of 60 r.p.m. and containing a charge of 30 g of gelled material.
Two curves were drawn namely:
a decomposition curve giving the value of the resistant torque (m kg) in relation to time.
From this curve, two important results were obtained: the minimal resistant torque and the time of decomposition.
a curve giving the self-heating time in relation to temperature.
The self-heating time is defined by the moment when the temperature of the sheet exceeds the temperature of the plastograph (190° C).

[7] = Sticking of the stabilized material; details: cylinders at 210° C, 3 min mixing / 3 min rest
Experimental: Compounds Nos. 609 and 675 were placed in a mixer of the type previously used for studying static thermostability with cylinders at a fixed temperature of 210° C.
They were submitted to alternate periods of 3 minutes of mixing and 3 minutes of rest.

[8] = Sublimation of the stabilizers; format: physicochemical; details: 120° C, 15 Torr, 150 min
Source text: A sample of the substance to be tested was introduced into a test tube and heated under reduced pressure. The fraction of sublimated substance was recovered on a mobile cold wall.
After a certain period of time, the sublimated substance was weighed and the result expressed as a percentage of the weight of the starting-material.
The results obtained can only be of relative value, enabling a comparison to be made between two products tested under the same conditions.
Operating conditions (chosen at random).
Temperature of heating 120° C
Temperature of the cold wall
Duration of heating 150 minutes

[9] = format: physicochemical
Source text: The thermostability of Stabilizer 8 and that of 2-phenyl-indole were studied by differential thermoanalysis and by thermogravimetric analysis. […] Diagrams were made out for 2-phenyl-indole (i) and Compound 8 (ii) and enabled the following conclusions to be drawn: […]

[10] = Thermostability of the stabilizers: thermogravimetric analysis; format: physicochemical
Experimental: The thermostability of Stabilizer 8 and that of 2-phenyl-indole were studied by differential thermoanalysis and by thermogravimetric analysis.
This analysis necessitated two series of trials carried out under air and under inert gas (Argon) in order to eliminate any possible effect of oxygen. The results obtained were identical.
The temperature increase rate was 80° C/hour. Thermograms were drawn up under air for both 2-phenyl-indole (i) and for Stabilizer 8 (ii) and enabled the following conclusion to be drawn: […]

CCCCCCCCCCCCOc1ccc(-c2cc3ccccc3[nH]2)cc1 [Stabilizer 8, 2-(4'-dodecyloxy-phenyl)-indole]
LD50 [1]: > 5000 mg/kg | Toxic symptoms (mice): none | Colouration of sheet (GARDNER Scale) ([2]; 0 min): 1 GARDNER degrees | Colouration of sheet (GARDNER Scale) ([2]; 3 min): 1 GARDNER degrees | Colouration of sheet (GARDNER Scale) ([2]; 6 min): 2 GARDNER degrees | Colouration of sheet (GARDNER Scale) ([2]; 9 min): 3 GARDNER degrees | Colouration of sheet (GARDNER Scale) ([2]; 12 min): 3 GARDNER degrees | Colouration of sheet (GARDNER Scale) ([2]; 15 min): 5 GARDNER degrees | Colouration of sheet (GARDNER Scale) ([2]; 18 min): 7 GARDNER degrees | Colouration of sheet (GARDNER Scale) ([2]; 21 min): 11 GARDNER degrees | Static thermostability compared with 2-phenyl-indole ([2]; 21 min): clearly superior to 2-phenyl-indole | Thickness of sheet ([2]; after 21 min): 1.30 mm | State of sheet ([2]; after 24 min): burnt | Colouration given to the co-polymer [3]: less yellow-coloured than that containing 2-phenyl-indole | Static thermostability compared with 2-phenyl-indole [3]: superior to 2-phenyl-indole | Colouration of sheet (GARDNER sub-scale) ([3]; 0 min): < 1 GARDNER degrees | Colouration of sheet (GARDNER sub-scale) ([3]; 10 min): < 2 GARDNER degrees | Colouration of sheet (GARDNER sub-scale) ([3]; 20 min): 2 GARDNER degrees | Colouration of sheet (GARDNER sub-scale) ([3]; 30 min): < 3 GARDNER degrees | Colouration of sheet (GARDNER sub-scale) ([4]; 0 min): < 1 GARDNER degrees | Colouration of sheet (GARDNER sub-scale) ([4]; 10 min): < 1 GARDNER degrees | Colouration of sheet (GARDNER sub-scale) ([4]; 20 min): < 2 GARDNER degrees | Colouration of sheet (GARDNER sub-scale) ([4]; 30 min): < 3 GARDNER degrees | Colouration of sheet (GARDNER sub-scale) ([5]; 0 min): 1 GARDNER degrees | Colouration of sheet (GARDNER sub-scale) ([5]; 10 min): 1.5 GARDNER degrees | Colouration of sheet (GARDNER sub-scale) ([5]; 20 min): 2 GARDNER degrees | Colouration of sheet (GARDNER sub-scale) ([5]; 30 min): 2.5 GARDNER degrees | Colouration of sheet (GARDNER sub-scale) ([5]; 40 min): < 3 GARDNER degrees | Colouration of sheet (GARDNER sub-scale) ([5]; 50 min): 3 GARDNER degrees | Colouration of sheet (GARDNER sub-scale) ([5]; 55 min): 3 GARDNER degrees | Colouration of sheet (GARDNER sub-scale) ([5]; 60 min): 3.5 GARDNER degrees | Static thermostability compared with 2-phenyl-indole ([5]; after 60 min): superior as a stabilizer to 2-phenyl-indole | Dynamic thermostability compared with 2-phenyl-indole [6]: slight superiority over 2-phenyl-indole | Sticking of the stabilized material [7]: comparable | Sublimation relative to 2-phenyl-indole [8]: forty times less than that of 2-phenyl-indole | Percentage of sublimated substance ([8]; cold wall 13° C): 0.6% | Melting temperature [9]: 203 °C | Start of decomposition ([9]; 2° C/minute): 300 °C | Start of weight loss ([10]; 80° C/hour, under air): about 295 °C | Thermostability of the stabilizer compared with 2-phenyl-indole ([10]; thermogravimetric analysis and differential thermoanalysis): greater thermostability than 2-phenyl-indole

Source: patent US4057530A, “2-Phenyl-indole derivatives and process for preparing the same” (priority 1974, dated 1977)
